# Experiment: passive permeability, PAMPA, ADME assay (AID 1508612)
# Conditions: pH 7.4, 30.0 min, 50.0 µM
row,Compound,Papp [×10⁻⁶ cm/s]
1,COc1ccc(-n2nc(C3CCCN(C(=O)Nc4ccccc4)C3)[nH]c2=O)cc1 (configuration not stated),360
2,NC(=O)C1CCN(c2nc(-c3ccc4c(c3)OCCCO4)cs2)CC1,629
3,O=C(Nc1nc(-c2ccccc2)cs1)c1ccncc1NS(=O)(=O)c1ccc(F)c(F)c1,> 1000
4,Cc1ccc(-n2c(C)cc(C3=NNC(=NC4CC4)SC3)c2C)cc1C,> 1000
5,Cc1ccc(O)c(-c2cc(-c3ccccc3C)[nH]n2)c1,511
6,Fc1ccc(Oc2nc(-c3ccncc3)nc3ccccc23)cc1F,16.5
7,NC(=O)C1CCN(c2nnc(-c3ccc4c(c3)OCCCO4)s2)CC1,83.8
8,Cc1cc(F)ccc1-c1nc(NCCN=C(N)NC#N)nc2c1ccc(=O)n2-c1c(F)cccc1F,< 1
9,COc1ccc(Nc2cc3c(nc2OC)nc(CCc2ccccc2)n3C)cn1,> 1000
10,CCn1nnnc1Sc1ncnc2scc(-c3ccc(C)cc3)c12,> 1000
11,CC1(C)CC2CC(C)(CN2S(=O)(=O)c2ccc(C(=O)Nc3ccc(Cl)cc3)cc2)C1 (configuration not stated),> 1000
12,Cc1csc2nc(-c3cccc(NC(=O)c4cccc(F)c4)c3)cn12,> 1000
13,Cc1cc(-c2nnc3n2CCCCC3)c(C)n1-c1cccc(Cl)c1,> 1000
14,Cc1cccc(-n2cnc3cc(C(=O)N4CCCCC4)ccc32)c1,912
15,N=c1c2ccccc2nnn1-c1ccc(C(F)(F)F)cc1,148
16,COc1ccc(CNc2ccc(S(=O)(=O)Nc3nccs3)cc2)c(O)c1,< 1
17,N#Cc1cnc(NS(=O)(=O)c2ccc(NC(=O)Cc3ccc(F)c(Cl)c3)cc2)s1,< 1
18,CCc1ccc(NC(=O)c2[nH]c(C)c(C(C)=O)c2C)cc1S(=O)(=O)Nc1cccc(C#N)c1,178
19,CC(=O)c1c(C)[nH]c(C(=O)Nc2ccc(C)c(S(=O)(=O)N3CCCCCC3)c2)c1C,792
20,NC(=O)C1CCN(c2ncc(-c3cccc(F)c3)s2)CC1,896
21,NC(=O)c1ccc(-c2nc3c([nH]2)CN(C(=O)CN2CCOCC2)CC3)cc1,2.6
22,O=C(O)c1cnc(-c2ccc(F)cc2)nc1-c1ccncc1,< 1
23,O=C(NCCCn1ccnc1)c1nc(-c2ccccc2)cc2[nH]ccc12,597
24,C[C@]12N[C@H](Cc3ccccc31)c1ccccc12,> 1000
25,O=C(CCCN1CCC2(CC1)C(=O)N(Cc1cccc(F)c1)CN2c1ccccc1)c1ccc(F)cc1,21
26,CCOc1ccc(-c2cn3c(n2)sc2cc(C(=O)NCCCN(CC)CC)ccc23)cc1,> 1000

row,Compound,Papp [×10⁻⁶ cm/s]
1,CC(C)C(=O)Nc1cccc(NC(=O)c2cc3ccccc3o2)c1,874
2,CCCCCCN(CCCCCC)C(=O)Cc1c(-c2ccc(F)cc2)[nH]c2ccccc12,11.7
3,O=C(O)CCNc1cc(N2CCc3ccccc3CC2)nc(-c2cccnc2)n1,56.4
4,O=C(Cc1ccc(Cl)c(Cl)c1)Nc1ccc(S(=O)(=O)Nc2cccc(O)c2)cc1,15.6
5,CN(C)CCNC(=O)c1nc(-c2ccccc2)cc2[nH]ccc12,838
6,Cn1cc(C2=C(c3cn(CCCSC(=N)N)c4ccccc34)C(=O)NC2=O)c2ccccc21,11.1
7,CCNC(=O)N1CCCN(c2ccc(C(=O)NCCc3ccc(Cl)cc3Cl)cc2NC(=O)c2cccc(Cl)c2)CC1,202
8,CCCCCn1c(=O)[nH]c2cc(C(=O)NCCCN3CCCCC3)ccc2c1=O,27.5
9,CSc1cc2c(s1)c1cnn(Cc3cccc(N)c3)c(=O)c1n2C,> 1000
10,Cc1ccccc1NC(=O)Nc1cccs1,106
11,COC(=N)c1nc2ccc3ncnc(Nc4ccc(F)cc4Br)c3c2s1,28
12,O=C(Nc1ccc([S+](=O)([O-])Nc2nccs2)cc1)c1ccccn1,3
13,O=C(O)c1ccccc1C(=O)Nc1ccc(-c2ccccc2)cc1,3.49
14,O=C(O)c1cccc(-n2cccc2/C=C2/NC(=O)N(c3cccc(Cl)c3)C2=O)c1,3.96
15,Cc1onc(-c2ccc(F)cc2)c1COc1ccc(C(=O)N2CCS(=O)(=O)CC2)cn1,258
16,Cc1ccc(S(=O)(=O)Nc2ccccc2C(=O)Nc2ccc(-c3ccccc3)nn2)cc1,> 1000
17,COc1cc(OC)cc(-c2csc(N3CCC(C(N)=O)CC3)n2)c1,> 1000
18,COc1ccccc1Nc1ccnc(N2CCN(C(=O)c3ccc(F)cc3)CC2)n1,> 1000
19,Cc1ccccc1-c1nc(CN2CCC(C(=O)NCCCN3CCOCC3)CC2)c(C)o1,432
20,COc1cccc(CNC(=O)c2c(OC)cc(=O)n3c2CCN(C(=O)c2ccc(C)cc2C)CC3)c1,93.9
21,COCCNC(=O)c1ccc(-c2ncc3cnc(-c4cccc(F)c4)cn23)cc1,405
22,Cc1ccccc1C(=O)N1CCc2cc(-c3csc(NC(=O)Cc4ccc5c(c4)OCO5)n3)ccc21,> 1000
23,CCc1ccc(C2C(C(=O)Nc3ccccc3OC)=C(C)Nc3c(C(=O)Nc4ccc(C)cc4)cnn32)cc1 (configuration not stated),547
24,Nc1nc(N)c2cc(Sc3ccc4ccccc4c3)ccc2n1,461
25,CNc1oc(-c2cccc3ccccc23)nc1C(=O)OC,> 1000
26,Cc1ccc(S(=O)(=O)Nc2cnccc2C(=O)Nc2nc(-c3ccncc3)cs2)cc1,74.4

row,Compound,Papp [×10⁻⁶ cm/s]
1,Cc1ccc(S(=O)(=O)Nc2ccc(C(=O)Nc3nc(-c4ccccc4)cs3)cc2Cl)cc1,23.9
2,COc1nccc(-c2nc(Nc3ccc(F)c(F)c3)c3ccccc3n2)c1Cl,30.3
3,Cc1n[nH]c(C)c1CCc1nc2c3ccccc3nc(SCC(=O)Nc3ccc(F)cc3)n2n1,122
4,COC(=O)c1ccccc1NC(=O)c1ccccc1OC(F)F,> 1000
5,Cc1cnc(-c2ccccc2OC(C)C)nc1NCc1ccc(-n2ccnn2)cc1,> 1000
6,Cc1ccc(-n2ncc3c(NCCCn4ccnc4)ncnc32)cc1Cl,> 1000
7,O=C1CCCC2=C1C(c1[nH]ncc1Cl)N=C(Nc1nc3c(Br)cccc3o1)N2 (configuration not stated),531
8,CN(C)c1cccc(-c2cnc(N3CCC(C(N)=O)CC3)nc2)c1,273
9,COCCNC(=O)c1ccc(-c2ccc(N3CCCCC3)nc2)cc1,> 1000
10,COC(=O)c1ccc(O)c2ncc(N3CCN(C)CC3)cc12,845
11,O=C(O)CCNc1cc(N2CCc3ccccc3CC2)nc(-c2ccccn2)n1,< 1
12,COc1cccc(CNc2ccc(S(=O)(=O)Nc3cc(C)on3)cc2)c1O,62.9
13,Cc1ccc(S(=O)(=O)Nc2cnccc2C(=O)Nc2ccc(C#N)cc2)cc1,69.6
14,Cc1cn2c(-c3cn[nH]c3)cnc2c(Nc2ccc(C(=O)N3CCNCC3)cc2F)n1,< 1
15,Cc1ccnc(NC(=S)N2CCCC(Nc3cccc(C(F)(F)F)c3)C2)c1 (configuration not stated),> 1000
16,Cc1ccc(N(C)S(=O)(=O)c2ccc(-c3cnc(C4CC4)o3)cc2)cc1,> 1000
17,NC(=O)C1CCN(c2nc(-c3cccc4sc5ccccc5c34)cs2)CC1,364
18,O=C1NC(=O)C(c2cnc3ccccn23)=C1c1cn2c3c(cccc13)CN(C(=O)N1CCOCC1)CC2,82.9
19,Cn1nnnc1Sc1ncnc2scc(-c3ccccc3F)c12,338
20,COC(=O)[C@H](Cc1ccc(O[S+](=O)([O-])c2cccc3cnccc23)cc1)N[S+](=O)([O-])c1ccc2cnccc2c1,> 1000
21,CCOc1ccc(CCN(C)C(=O)c2cc3sccc3n2Cc2ccccc2)cc1OCC,> 1000
22,COc1ccc(NC(=O)C2=C(C)NC(Nc3nc4ccccc4o3)=NC2c2ccccc2Br)cc1 (configuration not stated),371
23,CCc1cccc(C)c1Nc1c(-c2ccc(N(C)C)cc2)nc2ncccn12,> 1000
24,Cc1noc(-c2cn(C3CCN(C(=O)c4ccc(OC(F)(F)F)cc4)CC3)nn2)n1,10.2
25,O=C(Nc1ncc(Cc2ccc(C(F)(F)F)cc2)s1)c1ccc(-c2cccnc2)o1,984

# Reference: PubChem BioAssay AID1508612
